Laboratory results: patent US20060135587A1, “Method and compounds for promoting healing and reducing inflammation” (priority 2002, published 2006)

Tests used:
[1] = tested on: rats; test: Acute toxicity (LD50) in rats; type: in vivo
From the text: It is contemplated that in clinical use, treatment using oral tablets will take two to three weeks, with each patient receiving three tablets containing 0.6 g active compound per day.

[2] = tested on: lesions of the gastric mucosa; test: Gastric lesions induced by electrostimulation of immobilised rats; type: in vivo
Description: (§1) The models used gastric ulcers induced by
a) Electrostimulation of immobilised rats for 3 hours;
(§2) The compounds were administered intraperitoneally at a dose of 20 mg/kg; in the cryogenic ulcer model compound 2 was administered either intraperitoneally (10 mg/kg) or orally (20 mg/kg twice daily, ie. a total of 40 mg/kg/day) and was compared to orally-administered gastrocepin (1 mg/kg twice daily, ie. a total of 2 mg/kg/day).

[3] = Rat peripheral blood indicators during full-thickness skin wound treatment; type: in vivo, rats
Description: Peripheral blood indicators (leucocytes, leucocyte formula, erythrocyte sedimentation rate) of the rats from the test and control groups were measured before the animals were wounded, and then checked on the fifth, tenth and fifteenth days of the experiment. No reproducible changes compared to the blood characteristics of the intact animals prior to wounding were identified from the haematological indicators of rats treated with Compound 2.

[4] = tested on: myocardial infarction; test: Clinical study in subacute phase of myocardial infarction (Example 24); type: in vivo, human
Description: The effect of Compound 2 therapy in patients suffering from the subacute phase of myocardial infarction (MI) was assessed. The patients were divided into two groups. There were no substantial differences between the groups in terms of age and basic features of necrotic foci. Each patient continued to receive the treatment which s/he had been given prior to commencement of the trial. Compound 2 was administered in addition to the previous treatment. The first group included 63 patients who received conventional therapy, i.e. nitrates, anticoagulants and/or hypotensive agents as appropriate, and the second group comprised 44 patients who were treated with Compound 2 at a dose of 600 mg per day from the 7th to the 28th day after diagnosis of myocardial infarction, in addition to receiving conventional treatment. The control group included 14 healthy men aged from 26 to 42. The average age of patients in the first group was 50.3 years, and in the second group, 49.5 years.
Clinical evidence from daily examinations of both groups and the results of electrocardiagraphic examination in 12 abductions were assessed over the entire observation period. A number of analyses were made on the 7th and 28th day of progress of MI, including clinical blood count, plasma bilirubin, sugar, creatinine, cholesterol, β3-lipoproteins, potassium and sodium, and urine analysis; the activity of the prothrombin complex and the time of re-calcification were also determined. Central haemodynamics were examined using the method of body integral rheography, whereby the stroke volume and cardiac indices were calculated. Indices of left ventricular contractility—terminal diastolic volume, ejection fraction, and the extent of systolic contraction of anteroposterior cavity dimensions (% ΔS)— were examined using the echography method using an Aloka SSD-119 apparatus (Japan). Central and intracardiac haemodynamics was investigated on the 1st, 7th; 14th, 21st and 28th days of the disease.

[5] = tested on: gastric and duodenal ulcer; test: Clinical trial in gastric and duodenal ulcer; type: in vivo, human; conditions: three 0.2 g tablets per day orally for three weeks
Description: A clinical trial of the effect of Compound 2 on gastric and duodenal ulcer was carried out in several gastroenterological clinics in Russia. A total of 167 patients, 30 to 75 years old, was studied; of these 93 had duodenal ulcers and 74 had gastric ulcers. The results were monitored by gastroscopy at weekly intervals. Each patient continued to receive the treatment which s/he had been given prior to commencement of the trial. Compound 2 was administered in addition to the previous treatment. Compound 2 was given orally as three 0.2 g tablets per day over a period of three weeks, ie a total dose of […] for the treatment course, Compound 2 healed 80% of all the duodenal ulcers treated, and 54% of all the gastric ulcers treated. […] The effect of Compound 2 was compared with those of a placebo, or cimetidine. Even better results were obtained when Compound 2 was administered together with conventional therapy. […] Following termination of treatment with Compound 2 no ulceration was observed, ie there was no sign of the abstinence syndrome which is typically seen with H2-blockers and hormones. Compound 2 was an effective therapeutic agent with a pronounced reparative effect on erosive and ulcerating injuries of the gastroduodenal area.

[6] = tested on: bradykinin-induced inflammation; test: Bradykinin-induced acute inflammation in rats; type: in vivo
Description: Acute inflammation was induced by sub-plantar injection of 0.1 ml of 0.01% of bradykinin in saline solution into the left paws of male rats weighing 180-200 g. The acuteness of the inflammation was assessed 30 minutes after injection of bradykinin by the change in the paw volume. The anti-inflammatory effect, assessed by the reduction of swelling, was expressed as a percentage of the initial paw […] compared to controls. The test substances were administered orally via an intra-gastric tube for three days and at one hour before administration of bradykinin. […] These were administered orally to rats for 3 days and at one hour before the injection of the agent. There were 12 rats in each group.

[7] = tested on: cryogenic ulcer of the gastric mucosa; test: Cryogenic gastric ulcer in rats; type: in vivo; conditions: for reduction of the size of lesions in the gastric mucosa: day 14
Description: as §1
c) Ulcer created by local wounding with a cryogenic probe using a method similar to that described above for mouth ulcers.
as §2

[8] = Healing effect over the course of 3 days
[9] = Protective effect, 30 minutes before the test
[10] = healing effect over the course of 14 days, twice daily, oral

CC[n+]1cn(C)c(C(=O)NC)c1C(=O)NC.O=S(=O)([O-])c1ccccc1 [Compound 2, 1-methyl-3-ethyl-4,5-bis(N-methylcarbamoyl)-imidazolium benzenesulfonate]
LD50 ([1]; given intraperitoneally): 1210 mg/kg | LD50 ([1]; oral administration): more than 20000 mg/kg | % reduction of degree of ulceration [2, 8]: 50% | Average number of lesions per animal [2, 8]: 1.7 ± 0.2 | % reduction of degree of ulceration [2, 9]: 66% | % reduction of ulcerated area [2, 9]: 91% | Area of lesion [2, 9]: 2.8 ± 2.1 | Average number of lesions per animal ([2]; Protective effect, 30 minutes before the test, 20 mg/kg intraperitoneally): 2.4 ± 0.8 | ESR mm/h ([3]; day 5): 2.2 ± 0.6 mm/h | Leucocyte count (%) Band neutrophils ([3]; day 5): 1.4 ± 0.4% | Leucocyte count (%) Segmented neutrophils ([3]; day 5): 35.2 ± 4.4% | Leucocyte count (%) basophils ([3]; day 5): 0% | Leucocyte count (%) eosinophils ([3]; day 5): 2.6 ± 0.6% | Leucocyte count (%) lymphocytes ([3]; day 5): 52.6 ± 4.5% | Leucocyte count (%) monocytes ([3]; day 5): 8.2 ± 0.8% | Leucocytes 10^9/l ([3]; day 5): 6.6 ± 0.9 10^9/l | ESR mm/h ([3]; day 10): 1.0 ± 0 mm/h | Leucocyte count (%) Band neutrophils ([3]; day 10): 1.2 ± 0.2% | Leucocyte count (%) Segmented neutrophils ([3]; day 10): 29.6 ± 2.2% | Leucocyte count (%) basophils ([3]; day 10): 0.6 ± 0.2% | Leucocyte count (%) eosinophils ([3]; day 10): 2.4 ± 0.5% | Leucocyte count (%) lymphocytes ([3]; day 10): 63.8 ± 1.9% | Leucocyte count (%) monocytes ([3]; day 10): 2.4 ± 0.5% | Leucocytes 10^9/l ([3]; day 10): 7.9 ± 0.6 10^9/l | European Search Report mm/h ([3]; day 15): 1.4 ± 0.2 mm/h | Leucocyte count (%) Band neutrophils ([3]; day 15): 1.2 ± 0.2% | Leucocyte count (%) Segmented neutrophils ([3]; day 15): 21.0 ± 3.1% | Leucocyte count (%) basophils ([3]; day 15): 0.4 ± 0.2% | Leucocyte count (%) eosinophils ([3]; day 15): 2.8 ± 0.2% | Leucocyte count (%) lymphocytes ([3]; day 15): 70.6 ± 3.4% | Leucocyte count (%) monocytes ([3]; day 15): 4.0 ± 0.7% | Leucocytes 10^9/1 ([3]; day 15): 11.1 ± 1.6 10^9/1 | left ventricular myocardial contractility ([4]; 600 mg per day combined with conventional therapy): increased the rate and extent of regeneration of left ventricular myocardial contractility | clinical side effects ([4]; 600 mg per day, 7th to 28th day of the disease): did not produce any clinical side effects | serum bilirubin ([4]; 600 mg per day, does not exceed the upper limit of standard values): increase in unconjugated and hence total bilirubin in serum | side effects [5]: No side effects were observed | duodenal ulcers healed ([5]; added to previous treatment): 80% | gastric ulcers healed ([5]; added to previous treatment): 54% | Increase in paw volume ([6]; 20 mg/kg orally): 0.41 mL | Paw volume 30 minutes after administration of bradykinin ([6]; 20 mg/kg orally): 1.80 ± 0.060 mL | Paw volume initial ([6]; 20 mg/kg orally): 1.39 ± 0.040 mL | Swelling inhibition (%) ([6]; 20 mg/kg orally): 40.58% | Increase in paw volume ([6]; 50 mg/kg orally): 0.34 mL | Paw volume 30 minutes after administration of bradykinin ([6]; 50 mg/kg orally): 1.69 ± 0.060 mL | Paw volume initial ([6]; 50 mg/kg orally): 1.35 ± 0.038 mL | Swelling inhibition (%) ([6]; 50 mg/kg orally): 50.72% | reduction of the size of lesions in the gastric mucosa ([7]; 10 mg/kg intraperitoneally): 53% | reduction of the size of lesions in the gastric mucosa ([7]; daily dose of 40 mg/kg orally): 51% | % reduction of degree of ulceration [7, 10]: 62% | Average number of lesions per animal [7, 10]: 9.4 ± 1.0
